Test results: patent US11019820B2 (BASF SE, priority 2013, dated 2021)
Where two headings read alike, the source gives them in different places.

Key:
Type in all cases: in vivo
Myzus persicae = assay: Green peach aphid (Myzus persicae) systemic artificial diet test; conditions: 72 h, read-out: mortality in comparison with untreated controls (aphid mortality)
Description: For evaluating control of green peach aphid (Myzus persicae) through systemic means the test unit consisted of 96-well-microtiter plates containing liquid artificial diet under an artificial membrane.
The compounds were formulated using a solution containing 75% v/v water and 25% v/v DMSO. Different concentrations of formulated compounds were pipetted into the aphid diet, using a custom built pipetter, at two replications.
After application, 5-8 adult aphids were placed on the artificial membrane inside the microtiter plate wells. The aphids were then allowed to suck on the treated aphid diet and incubated at about 23±1° C. and about 50±5% relative humidity for 3 days. Aphid mortality and fecundity was then visually assessed.

Megoura viciae = assay: Vetch aphid (Megoura viciae) leaf disk test; conditions: foliar, 120 h, read-out: mortality in comparison with untreated controls (aphid mortality)
Method: For evaluating control of vetch aphid (Megoura viciae) through contact or systemic means the test unit consisted of 24-well-microtiter plates containing broad bean leaf disks.
The compounds were formulated using a solution containing 75% v/v water and 25% v/v DMSO. Different concentrations of formulated compounds were sprayed onto the leaf disks at 2.5 μl, using a custom built micro atomizer, at two replications.
After application, the leaf disks were air-dried and 5-8 adult aphids placed on the leaf disks inside the microtiter plate wells. The aphids were then allowed to suck on the treated leaf disks and incubated at about 23±1° C. and about 50±5% relative humidity for 5 days. Aphid mortality and fecundity was then visually assessed.

Nilaparvata lugens = assay: Rice brown plant hopper (Nilaparvata lugens) rice seedling spray test; conditions: read-out: mortality in comparison with untreated controls
Method: (§1) Rice seedlings were cleaned and washed 24 hours before spraying. The active compounds were formulated in 50:50 acetone:water (vol:vol) and 0.1% vol/vol surfactant (EL 620) was added. Potted rice seedlings were sprayed with 5 ml test solution, air dried, placed in cages and inoculated with 10 adults. Treated rice plants were kept at about 28-29° C. and relative humidity of about 50-60%. Percent mortality was recorded after 72 hours.

Nephotettix virescens = assay: Rice green leafhopper (Nephotettix virescens) rice seedling spray test; conditions: read-out: mortality in comparison with untreated controls
Method: as §1, with “(vol:vol),” for “(vol:vol)”

Dichromothrips corbetti = assay: Orchid thrips (Dichromothrips corbetti) floral-immersion test; conditions: read-out: mortality in comparison with untreated controls
Method: Dichromothrips corbetti adults used for bioassay were obtained from a colony maintained continuously under laboratory conditions. For testing purposes, the test compound is diluted in a 1:1 mixture of acetone:water (vol:vol), plus 0.01% vol/vol Alkannuls® EL 620 surfactant.
Thrips potency of each compound was evaluated by using a floral-immersion technique. Plastic petri dishes were used as test arenas. All petals of individual, intact orchid flowers were dipped into treatment solution and allowed to dry. Treated flowers were placed into individual petri dishes along with about 20 adult thrips. The petri dishes were then covered with lids. All test arenas were held under continuous light and a temperature of about 28° C. for duration of the assay. After 3 days, the numbers of live thrips were counted on each flower, and along inner walls of each petri dish. The percent mortality was recorded 72 hours after treatment.

Heliothis virescens = assay: Tobacco budworm (Heliothis virescens) diet microtiter plate test; conditions: 120 h, read-out: mortality in comparison with untreated controls (egg and larval mortality)
Method: For evaluating control of tobacco budworm (Heliothis virescens) the test unit consisted of 96-well-microtiter plates containing an insect diet and 15-25 H. virescens eggs. The compounds were formulated using a solution containing 75% v/v water and 25% v/v DMSO. Different concentrations of formulated compounds were sprayed onto the insect diet at 10 μl, using a custom built micro atomizer, at two replications.
After application, microtiter plates were incubated at about 28±1° C. and about 80±5% relative humidity for 5 days. Egg and larval mortality was then visually assessed.

Anthonomus grandis = assay: Boll weevil (Anthonomus grandis) diet microtiter plate test; conditions: 120 h, read-out: mortality in comparison with untreated controls (egg and larval mortality)
Method: For evaluating control of boll weevil (Anthonomus grandis) the test unit consisted of 96-well-microtiter plates containing an insect diet and 5-10 A. grandis eggs.
The compounds were formulated using a solution containing 75% v/v water and 25% v/v DMSO. Different concentrations of formulated compounds were sprayed onto the insect diet at 5 μl, using a custom built micro atomizer, at two replications.
After application, microtiter plates were incubated at about 25±1° C. and about 75±5% relative humidity for 5 days. Egg and larval mortality was then visually assessed.

[1] = 500 ppm, sprayed rice seedlings, after 72 hours
[2] = 500 ppm, floral immersion, 72 hours after treatment
[3] = 2500 ppm, in aphid diet, 3 days
[4] = 2500 ppm, sprayed onto insect diet, 5 days
[5] = 2500 ppm, sprayed broad bean leaf disks, 5 days

CCn1c([O-])c(-c2cccc(C(F)(F)F)c2)c(=O)[n+]2c1COC2c1ccc(Cl)nc1 (stereo not drawn) [Compound C-32]
> 75%: mortality at 2500 ppm (Myzus persicae)

Cn1c2[n+](c([O-])c(-c3ccccc3)c1=O)C(c1cnc(Cl)s1)CO2 (stereo not drawn) [Compound C-19]
> 75%: mortality at 2500 ppm (Megoura viciae)

Cn1c2[n+](c([O-])c(-c3cccc(C(F)(F)F)c3)c1=O)[C@@H](c1cnc(Cl)s1)CC2 (single isomer, unassigned) [Compound C-28]
> 75%: mortality at 500 ppm (Nilaparvata lugens; [1]) | mortality at 500 ppm (Nephotettix virescens; [1]) | mortality at 500 ppm (Dichromothrips corbetti; [2])

C[n+]1c([O-])c(-c2ccccc2)c(=O)n2c1CCCC2c1ccc(Cl)nc1 (stereo not drawn) [Compound C-8, 6-(6-chloro-3-pyridyl)-1-methyl-4-oxo-3-phenyl-6,7,8,9-tetrahydropyrido[1,2-a]pyrimidin-5-ium-2-olate]
> 75%: mortality at 2500 ppm (Myzus persicae) | mortality at 500 ppm (Nephotettix virescens; 72 h) | mortality at 500 ppm (Dichromothrips corbetti; 72 h) | mortality at 2500 ppm (Megoura viciae)

Cn1c2[n+](c([O-])c(-c3cccc(-c4ccccc4)c3)c1=O)C(c1cnc(Cl)s1)CC2 (stereo not drawn) [Compound C-45]
> 75%: mortality at 2500 ppm (Myzus persicae; [3]) | mortality at 2500 ppm (Heliothis virescens; [4]) | mortality at 500 ppm (Dichromothrips corbetti; [2]) | mortality at 2500 ppm (Megoura viciae; [5])

C=CCn1c([O-])c(-c2cccc(C(F)(F)F)c2)c(=O)[n+]2c1CCC2c1cnc(Cl)s1 (stereo not drawn) [Compound C-41]
> 75%: mortality at 2500 ppm (Myzus persicae; [3])

C[C@@H]1C[C@@H](c2cnc(Cl)s2)[n+]2c([O-])c(-c3ccccc3)c(=O)n(C)c21 (racemic) [Compound C-29]
> 75%: mortality at 500 ppm (Nilaparvata lugens; [1]) | mortality at 2500 ppm (Myzus persicae; [3]) | mortality at 2500 ppm (Anthonomus grandis; [4]) | mortality at 500 ppm (Dichromothrips corbetti; [2]) | mortality at 2500 ppm (Megoura viciae; [5])

CCn1c([O-])c(-c2cccc(C(F)(F)F)c2)c(=O)[n+]2c1CCC2c1cnc(Cl)s1 (stereo not drawn) [Compound C-27]
> 75%: mortality at 2500 ppm (Myzus persicae; [3]) | mortality at 500 ppm (Dichromothrips corbetti; [2]) | mortality at 2500 ppm (Megoura viciae; [5])

CC[n+]1c([O-])c(-c2ccccc2)c(=O)n2c1CCC2c1ccc(Cl)nc1 (stereo not drawn) [Compound C-2]
> 75%: mortality at 2500 ppm (Myzus persicae) | mortality at 500 ppm (Nephotettix virescens; 72 h) | mortality at 500 ppm (Dichromothrips corbetti; 72 h) | mortality at 2500 ppm (Megoura viciae)

COC1=NC(c2c[n+]3c(=O)c(-c4ccccc4)c([O-])n(Cc4ccccc4)c3s2)CC1 (stereo not drawn) [Compound C-21]
> 75%: mortality at 2500 ppm (Myzus persicae; [3])

Cn1c2[n+](c([O-])c(-c3ccccc3)c1=O)C(c1cnc(Cl)s1)CC2(C)C (stereo not drawn) [Compound C-40]
> 75%: mortality at 2500 ppm (Myzus persicae; [3]) | mortality at 2500 ppm (Anthonomus grandis; [4]) | mortality at 2500 ppm (Megoura viciae; [5])

C=CCn1c([O-])c(-c2ccccc2)c(=O)[n+]2c1CCC2c1cnc(Cl)s1 (stereo not drawn) [Compound C-17]
> 75%: mortality at 2500 ppm (Myzus persicae; [3])

Cn1c2[n+](c([O-])c(-c3ccccc3)c1=O)C(c1cnc(Cl)c(-c3ccccc3)c1)CC2 (stereo not drawn) [Compound C-23]
> 75%: mortality at 2500 ppm (Myzus persicae; [3])

CCn1c([O-])c(-c2cc(Cl)cc(Cl)c2)c(=O)[n+]2c1COC2c1ccc(Cl)nc1 (stereo not drawn) [Compound C-44]
> 75%: mortality at 2500 ppm (Myzus persicae) | mortality at 2500 ppm (Anthonomus grandis) | mortality at 2500 ppm (Heliothis virescens) | mortality at 2500 ppm (Megoura viciae)

Cn1c2[n+](c([O-])c(-c3cccc(-c4ncc(C(F)(F)F)cc4Cl)c3)c1=O)C(c1cnc(Cl)s1)CC2 (stereo not drawn) [Compound C-48]
> 75%: mortality at 2500 ppm (Myzus persicae; [3]) | mortality at 500 ppm (Dichromothrips corbetti; [2]) | mortality at 2500 ppm (Megoura viciae; [5])

CCn1c([O-])c(-c2cccc(C(F)(F)F)c2)c(=O)[n+]2c1COC2c1cnc(Cl)s1 (stereo not drawn) [Compound C-35]
> 75%: mortality at 500 ppm (Dichromothrips corbetti; [2])

Cn1c2[n+](c([O-])c(-c3cccc(C(F)(F)F)c3)c1=O)C(c1cnc(Cl)s1)CC2 (stereo not drawn) [Compound C-22]
> 75%: mortality at 2500 ppm (Myzus persicae; [3]) | mortality at 500 ppm (Nephotettix virescens; [1]) | mortality at 500 ppm (Dichromothrips corbetti; [2]) | mortality at 2500 ppm (Megoura viciae; [5])

CC(C)[n+]1c([O-])c(-c2ccccc2)c(=O)n2c1CCC2c1ccc(Cl)nc1 (stereo not drawn) [Compound C-3]
> 75%: mortality at 2500 ppm (Myzus persicae) | mortality at 2500 ppm (Anthonomus grandis) | mortality at 500 ppm (Dichromothrips corbetti; 72 h) | mortality at 2500 ppm (Megoura viciae; in Vicia faba)

C=CCn1c([O-])c(-c2cc(Cl)cc(Cl)c2)c(=O)[n+]2c1CCC2c1cnc(Cl)s1 (stereo not drawn) [Compound C-31]
> 75%: mortality at 2500 ppm (Myzus persicae; [3]) | mortality at 2500 ppm (Megoura viciae; [5])

C[n+]1c([O-])c(-c2ccccc2)c(=O)n2c1CCCC2c1cnc(Cl)s1 (stereo not drawn) [Compound C-13]
> 75%: mortality at 2500 ppm (Myzus persicae; [3]) | mortality at 2500 ppm (Megoura viciae; [5])

CCn1c([O-])c(-c2cccc(-c3ccccc3)c2)c(=O)[n+]2c1COC2c1ccc(Cl)nc1 (stereo not drawn) [Compound C-43]
> 75%: mortality at 2500 ppm (Myzus persicae; [3])

CSc1ncc(C2CCCc3n2c(=O)c(-c2ccccc2)c([O-])[n+]3C)s1 (stereo not drawn) [Compound C-12]
> 75%: mortality at 2500 ppm (Myzus persicae; [3])

CN1C(=O)C(c2ccccc2)=C([O-])[N+]2=C(c3cnc(Cl)s3)CSC12 (stereo not drawn) [Compound C-38]
> 75%: mortality at 500 ppm (Nilaparvata lugens; [1]) | mortality at 2500 ppm (Myzus persicae; [3]) | mortality at 500 ppm (Nephotettix virescens; [1]) | mortality at 2500 ppm (Heliothis virescens; [4]) | mortality at 500 ppm (Dichromothrips corbetti; [2]) | mortality at 2500 ppm (Megoura viciae; [5])

O=c1c(-c2ccccc2)c([O-])n(Cc2ccccc2)c2[n+]1C(c1cnc(Cl)s1)CC2 (stereo not drawn) [Compound C-34]
> 75%: mortality at 2500 ppm (Myzus persicae; [3]) | mortality at 500 ppm (Dichromothrips corbetti; [2]) | mortality at 2500 ppm (Megoura viciae; [5])

Cn1c2[n+](c([O-])c(-c3cc(Cl)cc(Cl)c3)c1=O)C(c1cnc(Cl)s1)CC2 (stereo not drawn) [Compound C-50]
> 75%: mortality at 2500 ppm (Myzus persicae; [3]) | mortality at 500 ppm (Dichromothrips corbetti; [2]) | mortality at 2500 ppm (Megoura viciae; [5])

CCn1c([O-])c(-c2cccc(-c3ccccc3)c2)c(=O)[n+]2c1CCC2c1cnc(Cl)s1 (stereo not drawn) [Compound C-49]
> 75%: mortality at 2500 ppm (Myzus persicae; [3]) | mortality at 500 ppm (Dichromothrips corbetti; [2]) | mortality at 2500 ppm (Megoura viciae; [5])

C[n+]1c([O-])c(-c2ccccc2)c(=O)n2c1CCC2c1ccc(Cl)nc1 (stereo not drawn) [Compound C-1]
> 75%: mortality at 500 ppm (Nilaparvata lugens; 72 h) | mortality at 2500 ppm (Myzus persicae) | mortality at 500 ppm (Nephotettix virescens; 72 h) | mortality at 2500 ppm (Heliothis virescens) | mortality at 500 ppm (Dichromothrips corbetti; 72 h) | mortality at 2500 ppm (Megoura viciae)

C[n+]1c([O-])c(-c2ccccc2)c(=O)n2c1CCC2c1cnc(Cl)s1 (stereo not drawn) [Compound C-6, 6-(2-chlorothiazol-5-yl)-1-methyl-4-oxo-3-phenyl-3,6,7,8-tetrahydro-2H-pyrrolo[1,2-a]pyrimidin-5-ium-2-olate]
> 75%: mortality at 500 ppm (Nilaparvata lugens; 72 h) | mortality at 2500 ppm (Myzus persicae) | mortality at 500 ppm (Nephotettix virescens; 72 h) | mortality at 500 ppm (Dichromothrips corbetti; 72 h) | mortality at 2500 ppm (Megoura viciae)

CCn1c([O-])c(-c2ccccc2)c(=O)[n+]2c1CCC2c1cnc(Cl)s1 (stereo not drawn) [Compound C-24]
> 75%: mortality at 500 ppm (Nilaparvata lugens; [1]) | mortality at 2500 ppm (Myzus persicae; [3]) | mortality at 500 ppm (Nephotettix virescens; [1]) | mortality at 500 ppm (Dichromothrips corbetti; [2]) | mortality at 2500 ppm (Megoura viciae; [5])

CCn1c([O-])c(-c2ccc(OC)cc2)c(=O)[n+]2c1CCC2c1cnc(Cl)s1 (stereo not drawn) [Compound C-47]
> 75%: mortality at 2500 ppm (Myzus persicae; [3]) | mortality at 2500 ppm (Anthonomus grandis; [4]) | mortality at 500 ppm (Nephotettix virescens; [1]) | mortality at 500 ppm (Dichromothrips corbetti; [2]) | mortality at 2500 ppm (Megoura viciae; [5])
